Series [1] in a line: Gelation of peptides in non-aqueous polar aprotic solvents. To be noted: formulated in non-aqueous polar aprotic solvents; no gelation even after 12 months at 37° C. It counts as physicochemical. The procedure:
No gelation was found even after 12 months at 37° C. […] Thus, these solvents have an anti-gellant effect.

The conditions of series [2]: aggregation, gelation and fibrillation; cited from earlier work.

Regarding `CC(C)C[C@H](NC(=O)[C@@H](COC(C)(C)C)NC(=O)[C@H](Cc1ccc(O)cc1)NC(=O)[C@H](CO)NC(=O)[C@H](Cc1c[nH]c2ccccc12)NC(=O)[C@H](Cc1cnc[nH]1)NC(=O)[C@@H]1CCC(=O)N1)C(=O)N[C@@H](CCCNC(=N)N)C(=O)N1CCC[C@H]1C(=O)NNC(N)=O` [goserelin], the gelation entry in series [1] is “do not gel”. Still for that read-out and setting: to `CCNC(=O)[C@@H]1CCCN1C(=O)[C@H](CCCNC(=N)N)NC(=O)[C@H](CC(C)C)NC(=O)[C@@H](CC(C)C)NC(=O)[C@H](Cc1ccc(O)cc1)NC(=O)[C@H](CO)NC(=O)[C@H](Cc1c[nH]c2ccccc12)NC(=O)[C@H](Cc1c[nH]cn1)NC(=O)[C@@H]1CCC(=O)N1` [leuprolide] belongs “do not gel”.

Take calcitonin: the gelation result in series [1] was “do not gel”. In addition, the “physical stability in aqueous solution” value in series [2] is on record as “physically unstable”.
